In ChEMBL document CHEMBL1201862, “PubChem BioAssay data set” (2004):
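Cultured in 96-well plates, cells were exposed to test compound for 48 hours across five concentrations. Here, GI50 denotes the concentration required for 50% inhibition of growth.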 The source made the active and inactive calls. Rule as the data show it: active = GI50 up to about 1.1 µM and inactive = higher.

Experiments:
Assay in all cases: DTP human tumour cell line panel, 48 h
[1] = system: A549
[2] = system: DMS-114
[3] = system: HOP-92
[4] = system: HT-29
[5] = system: KM-20L2
[6] = system: LOX IMVI
[7] = system: M19-MEL
[8] = system: NCI-H226
[9] = system: NCI-H522
[10] = system: NCI/ADR-RES
[11] = system: OVCAR-4
[12] = system: RXF 393
[13] = system: M14
[14] = system: SR
[15] = system: TK-10

| Structure (SMILES) | GI50 [1] | GI50 [2] | GI50 [3] | GI50 [4] | GI50 [5] | GI50 [6] | GI50 [7] | GI50 [8] | GI50 [9] | GI50 [10] | GI50 [11] | GI50 [12] | GI50 [13] | GI50 [14] | GI50 [15] |
| --- | --- | --- | --- | --- | --- | --- | --- | --- | --- | --- | --- | --- | --- | --- | --- |
| C#CC[N+](CCO)(CCO)CCCCCCCCCCCCCCCCCC | 15.7 µM (inactive) | 10.3 µM (inactive) | 2 µM (inactive) | 4.59 µM (inactive) | 7.1 µM (inactive) | 4.81 µM (inactive) | 9.16 µM (inactive) | 12.6 µM (inactive) | 6.85 µM (inactive) | 20.2 µM (inactive) | 10.5 µM (inactive) | 2.48 µM (inactive) |  |  |  |
| CC(C)(C)OC(=O)NC1CCC(C(C)(C)C)CC1 (stereo unspecified) | 43.8 µM (inactive) | 34 µM (inactive) |  | 22.3 µM (inactive) | 37.9 µM (inactive) | 40.9 µM (inactive) | 31.3 µM (inactive) | 26.4 µM (inactive) | 85.1 µM (inactive) | 99.1 µM (inactive) | > 74.3 µM (inactive) | 31.3 µM (inactive) |  |  |  |
| C=C1C(=O)OC2C=C(C)CC3C=C(CCC=C(C)CCC12)C(=O)O3 (stereo unspecified) | 99.3 µM (inactive) | 65.9 µM (inactive) | 52.8 µM (inactive) | 67 µM (inactive) | 52.7 µM (inactive) | 32.5 µM (inactive) | 58.3 µM (inactive) | 72.8 µM (inactive) | 17.3 µM (inactive) | 62.8 µM (inactive) | 72.3 µM (inactive) | 31.3 µM (inactive) |  |  |  |
| O=C1C(Cl)N(c2ccccc2Cl)C1c1c[nH]c2ccccc12 (stereo unspecified) | > 100 µM (inactive) | > 100 µM (inactive) | > 100 µM (inactive) | > 100 µM (inactive) | > 100 µM (inactive) |  | > 100 µM (inactive) |  | > 100 µM (inactive) |  | > 100 µM (inactive) | > 100 µM (inactive) | > 100 µM (inactive) | > 100 µM (inactive) | > 100 µM (inactive) |
| CC(=O)OC1C(O)C(C)OC(OC(=O)C2CCC3C(C2)OC2(CC(OC(=O)/C=C/c4ccccc4)C(C)CO2)C32CO2)C1OC1OC(C)C(O)C(O)C1O (stereo unspecified) | 0.118 µM (active) | 0.0371 µM (active) | 0.0325 µM (active) | 0.0419 µM (active) | 0.0425 µM (active) | 0.115 µM (active) | 0.0332 µM (active) | 0.0435 µM (active) | 0.0325 µM (active) | 21.7 µM (inactive) | 0.0325 µM (active) | 0.0644 µM (active) |  |  |  |
| CC1OC(CO)(n2cnc3c(N)ncnc32)C(O)C1O (stereo unspecified) | > 100 µM (inactive) | > 100 µM (inactive) | > 100 µM (inactive) | > 100 µM (inactive) | > 100 µM (inactive) | > 100 µM (inactive) | > 100 µM (inactive) | > 100 µM (inactive) | > 100 µM (inactive) | > 100 µM (inactive) | > 100 µM (inactive) | > 100 µM (inactive) |  |  |  |
